According to patent US4544662A, “1'-Substituted-spiro[oxazolidine-5-3'-indoline]-2,2', 4-trione derivatives” (Imperial Chemical Industries, priority 1982, dated 1985):
pIC50: −log10 of the molar value.

Target: T1, aldose reductase (Bos taurus, UniProt P16116)
T1 construct: purified aldose reductase is isolated in known manner from bovine lenses; from tissue; host or cells: bovine lens
Assay: in vitro inhibition of purified aldose reductase isolated from bovine lenses (spectrophotometric)
Format: biochemical
Conditions: purified bovine lens aldose reductase; reduction of glucose to sorbitol; read-out: IC50 (concentration necessary to produce 50% inhibition of enzymic activity)
Method: Thus, purified aldose reductase is isolated in known manner from bovine lenses. The percentage inhibition of this enzyme's ability in vitro to reduce aldoses to polyhydric alcohols, and particularly to reduce glucose to sorbitol, caused by a test compound is then determined using standard spectrophotometric methods.

| pIC50 | Structure (SMILES) |
| --- | --- |
| 7.60 | Cc1cc(Cl)cc2c1N(Cc1ccc(Cl)c(Cl)c1)C(=O)C21OC(=O)NC1=O (centres unmarked) [Example 7, 1'-(3,4-dichlorobenzyl)-5'-chloro-7'-methylspiro[oxazolidine-5,3'-indoline]-2,2',4-trione] |
| 7.70 | Cc1cccc2c1N(Cc1ccc(Br)cc1F)C(=O)C21OC(=O)NC1=O (centres unmarked) [Example 6, 1'-(4-bromo-2-fluorobenzyl)-7'-methylspiro[oxazolidine-5,3'-indoline]-2,2',4-trione] |
